pIC50: −log10 of the molar value.
Columns and labels:
Cytochrome P450 2C9 = Cytochrome P450 2C9 (Homo sapiens, UniProt P11712); test: (§1) Inhibition of CYP2C9 in human liver microsomes at 10 uM relative to control; assay type: ADME, Microsome; conditions: microsomes, 10 µM
Cytochrome P450 2C19 = Cytochrome P450 2C19 (Homo sapiens, UniProt P33261); test: (§2) Inhibition of CYP2C19 in human liver microsomes at 10 uM relative to control; assay type: ADME, Microsome; conditions: microsomes, 10 µM
Cytochrome P450 3A4 = Cytochrome P450 3A4 (Homo sapiens, UniProt P08684); test: (§3) Inhibition of CYP3A4 in human liver microsomes at 10 uM relative to control; assay type: ADME, Microsome; conditions: microsomes, 10 µM
Cytochrome P450 2D6 = Cytochrome P450 2D6 (Homo sapiens, UniProt P10635); test: (§4) Inhibition of CYP2D6 in human liver microsomes at 10 uM relative to control; assay type: ADME, Microsome; conditions: microsomes, 10 µM
Cytochrome P450 1A2 = target: T1, Cytochrome P450 1A2 (Homo sapiens, UniProt P05177); test: (§5) Inhibition of CYP1A2 in human liver microsomes at 10 uM relative to control; assay type: ADME, Microsome; conditions: microsomes, 10 µM
T1 sequence (P05177 whole entry): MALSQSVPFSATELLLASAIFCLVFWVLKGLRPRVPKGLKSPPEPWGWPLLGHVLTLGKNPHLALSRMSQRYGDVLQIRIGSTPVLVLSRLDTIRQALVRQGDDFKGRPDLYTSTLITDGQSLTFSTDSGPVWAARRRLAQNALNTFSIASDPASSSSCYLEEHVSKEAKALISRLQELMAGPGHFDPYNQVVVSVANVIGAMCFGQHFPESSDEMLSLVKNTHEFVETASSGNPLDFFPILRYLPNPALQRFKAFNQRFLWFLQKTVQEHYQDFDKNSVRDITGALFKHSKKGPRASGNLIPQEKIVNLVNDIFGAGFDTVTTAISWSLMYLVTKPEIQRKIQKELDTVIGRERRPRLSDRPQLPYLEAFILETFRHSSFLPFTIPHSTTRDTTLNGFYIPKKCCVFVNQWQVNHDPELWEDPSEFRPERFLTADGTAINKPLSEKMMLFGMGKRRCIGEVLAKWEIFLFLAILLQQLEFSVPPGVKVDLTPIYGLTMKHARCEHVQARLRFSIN

[1] = Metabolic stability in mouse liver microsomes assessed as half life; assay type: ADME, Microsome; conditions: for t1/2: microsomes
[2] = target: T2, Delta-type opioid receptor (Homo sapiens, UniProt P41143); test: Antagonist activity against human DOR expressed in CHO-K1 cells assessed as maximal inhibition of forskolin-induced cAMP accumulation pretreated for 15 mins followed by forskolin addition measured after 30 mins by HitHunter cAMP assay normalized to naltrexone; assay type: functional, cell-based; conditions: filed as antagonist, time 45.0 min
[3] = Metabolic stability in human liver microsomes assessed as half life; assay type: ADME, Microsome; conditions: for t1/2: microsomes
Mu-type opioid receptor = Mu-type opioid receptor (Homo sapiens, UniProt P35372); assay type: functional, cell-based, CHO-K1
[4] = Cmax in Sprague-Dawley rat plasma at 2 mg/kg, ip by LC-MS/MS analysis; assay type: ADME, organism-based
[5] = Half life in Sprague-Dawley rat plasma at 2 mg/kg, ip by LC-MS/MS analysis; assay type: ADME, organism-based
[6] = Cmax in Sprague-Dawley rat plasma at 1 mg/kg, ip by LC-MS/MS analysis; assay type: ADME, organism-based
[7] = Drug uptake in Sprague-Dawley rat brain at 1 mg/kg, ip by LC-MS/MS analysis; assay type: ADME, organism-based; conditions: in vivo
[8] = Half life in Sprague-Dawley rat plasma at 1 mg/kg, ip by LC-MS/MS analysis; assay type: ADME, organism-based
[9] = target: T2, Delta-type opioid receptor
[10] = target: Kappa-type opioid receptor (Homo sapiens, UniProt P41145); assay type: functional, cell-based, CHO-K1
CYP2C9 = CYP2C9 (Homo sapiens, UniProt P11712); test: as §1; assay type: ADME, Microsome; conditions: liver microsomes
CYP2C19 = CYP2C19 (Homo sapiens, UniProt P33261); test: as §2; assay type: ADME, Microsome; conditions: liver microsomes
CYP3A4 = CYP3A4 (Homo sapiens, UniProt P08684); test: as §3; assay type: ADME, Microsome; conditions: liver microsomes
CYP2D6 = CYP2D6 (Homo sapiens, UniProt P10635); test: as §4; assay type: ADME, Microsome; conditions: liver microsomes
CYP1A2 = CYP1A2 (Homo sapiens, UniProt P05177); test: as §5; assay type: ADME, Microsome; conditions: liver microsomes
[11] = target: T3, Sodium-dependent noradrenaline transporter (Homo sapiens, UniProt P23975); test: Inhibition of Norepinephrine transporter (unknown origin) assessed as maximal response
[12] = target: D(2) dopamine receptor (Homo sapiens) (UniProt P14416); test: Antagonist activity at D2S receptor (unknown origin) assessed as maximal response; conditions: filed as antagonist
[13] = target: T4, Sodium-dependent dopamine transporter (Homo sapiens, UniProt Q01959); test: Inhibition of Dopamine transporter (unknown origin) assessed as maximal response
[14] = target: T5, Rho-associated protein kinase 1 (Homo sapiens, UniProt Q13464); test: Inhibition of ROCK1 (unknown origin) assessed as maximal response
[15] = target: Alpha-1A adrenergic receptor (Homo sapiens) (UniProt P35348); test: Antagonist activity at alpha1A adrenoreceptor (unknown origin) assessed as maximal response; conditions: filed as antagonist
[16] = target: Glutamate [NMDA] receptor (Homo sapiens) (UniProt Q05586+Q12879+Q13224+O15399+O60391+Q14957+Q8TCU5); test: Inhibition of NMDA receptor (unknown origin) assessed as maximal response; assay type: protein-complex assay
[17] = target: T5, Rho-associated protein kinase 1; test: Inhibition of ROCK1 (unknown origin)
[18] = target: T4, Sodium-dependent dopamine transporter; test: Inhibition of Dopamine transporter (unknown origin)
[19] = target: Voltage-gated inwardly rectifying potassium channel KCNH2 (Homo sapiens, UniProt Q12809); test: Inhibition of hERG channel; assay type: toxicity
hERG (KCNH2) = hERG (KCNH2) (Homo sapiens, UniProt Q12809); test: Inhibition of hERG channel assessed as maximal response; assay type: toxicity; conditions: read-out: Imax
[20] = target: Glutamate [NMDA] receptor; test: Inhibition of NMDA receptor (unknown origin); assay type: protein-complex assay, Homo sapiens
[21] = target: T3, Sodium-dependent noradrenaline transporter; test: Inhibition of Norepinephrine transporter (unknown origin)
[22] = Metabolic stability in mouse liver microsomes assessed as intrinsic clearance; assay type: ADME, Microsome

Sequence of Mu-type opioid receptor (P35372 whole entry): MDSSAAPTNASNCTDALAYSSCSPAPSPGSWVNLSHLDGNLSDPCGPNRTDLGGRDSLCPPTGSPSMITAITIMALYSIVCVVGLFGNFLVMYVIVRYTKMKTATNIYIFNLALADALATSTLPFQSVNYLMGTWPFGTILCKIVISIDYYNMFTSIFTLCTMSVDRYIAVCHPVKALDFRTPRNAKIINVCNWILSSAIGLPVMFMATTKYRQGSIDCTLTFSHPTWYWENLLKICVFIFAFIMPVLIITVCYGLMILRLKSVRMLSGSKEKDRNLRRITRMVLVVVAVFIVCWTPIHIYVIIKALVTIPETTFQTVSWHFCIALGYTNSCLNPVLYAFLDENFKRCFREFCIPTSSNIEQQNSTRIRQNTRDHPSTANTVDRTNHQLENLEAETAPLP
Sequence of Cytochrome P450 2C9 (P11712 whole entry): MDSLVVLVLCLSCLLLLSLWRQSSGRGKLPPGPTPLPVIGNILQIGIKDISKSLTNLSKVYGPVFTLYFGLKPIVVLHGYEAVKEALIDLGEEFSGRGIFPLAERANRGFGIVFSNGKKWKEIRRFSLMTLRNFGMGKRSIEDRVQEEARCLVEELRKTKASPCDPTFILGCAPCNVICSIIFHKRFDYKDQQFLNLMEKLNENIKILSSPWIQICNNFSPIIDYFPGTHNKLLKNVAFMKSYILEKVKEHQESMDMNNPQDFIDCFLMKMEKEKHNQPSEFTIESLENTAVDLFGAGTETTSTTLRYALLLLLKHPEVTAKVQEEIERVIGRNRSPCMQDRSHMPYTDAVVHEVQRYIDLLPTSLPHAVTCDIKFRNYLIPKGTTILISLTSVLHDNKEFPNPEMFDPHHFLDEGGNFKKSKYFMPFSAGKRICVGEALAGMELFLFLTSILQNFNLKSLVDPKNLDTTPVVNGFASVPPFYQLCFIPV
Sequence of Cytochrome P450 2D6 (P10635 whole entry): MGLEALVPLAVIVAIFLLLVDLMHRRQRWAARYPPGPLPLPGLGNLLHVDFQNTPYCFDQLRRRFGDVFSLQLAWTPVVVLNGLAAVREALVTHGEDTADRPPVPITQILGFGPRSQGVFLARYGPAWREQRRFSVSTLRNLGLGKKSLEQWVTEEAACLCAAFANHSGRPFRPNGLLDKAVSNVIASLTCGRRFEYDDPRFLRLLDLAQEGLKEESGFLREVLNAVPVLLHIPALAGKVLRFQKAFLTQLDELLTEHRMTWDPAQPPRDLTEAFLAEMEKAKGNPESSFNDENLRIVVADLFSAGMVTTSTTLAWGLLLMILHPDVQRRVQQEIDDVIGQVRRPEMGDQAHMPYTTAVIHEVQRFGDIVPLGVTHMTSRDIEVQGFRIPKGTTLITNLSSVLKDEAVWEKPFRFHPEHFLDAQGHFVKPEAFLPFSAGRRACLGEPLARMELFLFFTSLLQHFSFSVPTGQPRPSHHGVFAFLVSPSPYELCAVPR
T2 sequence (P41143 whole entry): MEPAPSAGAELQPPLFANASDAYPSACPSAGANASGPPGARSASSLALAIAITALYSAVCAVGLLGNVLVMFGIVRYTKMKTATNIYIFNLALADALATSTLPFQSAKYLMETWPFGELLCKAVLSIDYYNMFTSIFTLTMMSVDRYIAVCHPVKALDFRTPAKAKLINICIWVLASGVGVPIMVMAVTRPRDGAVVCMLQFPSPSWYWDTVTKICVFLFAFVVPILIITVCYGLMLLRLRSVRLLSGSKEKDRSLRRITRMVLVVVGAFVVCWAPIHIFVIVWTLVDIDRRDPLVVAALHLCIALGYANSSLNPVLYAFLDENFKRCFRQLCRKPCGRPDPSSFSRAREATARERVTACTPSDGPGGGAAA
Sequence of Cytochrome P450 3A4 (P08684 whole entry): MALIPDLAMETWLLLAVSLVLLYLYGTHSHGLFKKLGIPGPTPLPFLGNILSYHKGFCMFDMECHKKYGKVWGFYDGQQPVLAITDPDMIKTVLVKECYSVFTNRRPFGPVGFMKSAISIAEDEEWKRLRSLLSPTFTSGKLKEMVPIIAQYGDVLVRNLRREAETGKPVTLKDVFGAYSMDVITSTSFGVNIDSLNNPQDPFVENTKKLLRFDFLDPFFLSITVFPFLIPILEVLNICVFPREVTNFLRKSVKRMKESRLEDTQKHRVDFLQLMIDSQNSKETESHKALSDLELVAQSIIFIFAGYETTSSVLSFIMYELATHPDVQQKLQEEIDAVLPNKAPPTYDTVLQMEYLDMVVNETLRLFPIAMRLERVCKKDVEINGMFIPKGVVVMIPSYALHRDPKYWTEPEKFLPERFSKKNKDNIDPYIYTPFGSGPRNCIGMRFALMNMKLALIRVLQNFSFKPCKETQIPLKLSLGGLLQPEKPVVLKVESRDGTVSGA
Sequence of Cytochrome P450 2C19 (P33261 whole entry): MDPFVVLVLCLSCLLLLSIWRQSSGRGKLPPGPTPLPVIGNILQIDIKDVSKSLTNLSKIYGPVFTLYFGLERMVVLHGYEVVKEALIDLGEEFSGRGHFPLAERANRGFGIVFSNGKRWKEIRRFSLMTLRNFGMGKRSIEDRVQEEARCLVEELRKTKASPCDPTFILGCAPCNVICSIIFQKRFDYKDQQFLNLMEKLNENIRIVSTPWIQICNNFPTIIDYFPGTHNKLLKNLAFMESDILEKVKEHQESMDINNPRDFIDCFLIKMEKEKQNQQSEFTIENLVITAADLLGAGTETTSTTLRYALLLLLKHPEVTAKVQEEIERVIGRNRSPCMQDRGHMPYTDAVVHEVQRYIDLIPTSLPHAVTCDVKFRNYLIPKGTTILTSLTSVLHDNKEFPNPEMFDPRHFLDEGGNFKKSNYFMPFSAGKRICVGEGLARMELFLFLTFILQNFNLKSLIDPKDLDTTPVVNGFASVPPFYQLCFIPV
Sequence of Kappa-type opioid receptor (P41145 whole entry): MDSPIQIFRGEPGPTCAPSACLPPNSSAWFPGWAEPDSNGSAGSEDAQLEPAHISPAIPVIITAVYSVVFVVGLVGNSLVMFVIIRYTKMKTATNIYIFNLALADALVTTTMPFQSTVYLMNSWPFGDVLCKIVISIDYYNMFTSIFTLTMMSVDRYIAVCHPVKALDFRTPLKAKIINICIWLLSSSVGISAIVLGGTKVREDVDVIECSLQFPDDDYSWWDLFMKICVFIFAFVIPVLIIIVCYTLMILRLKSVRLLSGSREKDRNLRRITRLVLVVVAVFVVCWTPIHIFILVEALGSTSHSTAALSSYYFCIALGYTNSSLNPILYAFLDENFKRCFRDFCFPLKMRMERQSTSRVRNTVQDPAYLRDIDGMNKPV
T3 sequence (P23975 whole entry): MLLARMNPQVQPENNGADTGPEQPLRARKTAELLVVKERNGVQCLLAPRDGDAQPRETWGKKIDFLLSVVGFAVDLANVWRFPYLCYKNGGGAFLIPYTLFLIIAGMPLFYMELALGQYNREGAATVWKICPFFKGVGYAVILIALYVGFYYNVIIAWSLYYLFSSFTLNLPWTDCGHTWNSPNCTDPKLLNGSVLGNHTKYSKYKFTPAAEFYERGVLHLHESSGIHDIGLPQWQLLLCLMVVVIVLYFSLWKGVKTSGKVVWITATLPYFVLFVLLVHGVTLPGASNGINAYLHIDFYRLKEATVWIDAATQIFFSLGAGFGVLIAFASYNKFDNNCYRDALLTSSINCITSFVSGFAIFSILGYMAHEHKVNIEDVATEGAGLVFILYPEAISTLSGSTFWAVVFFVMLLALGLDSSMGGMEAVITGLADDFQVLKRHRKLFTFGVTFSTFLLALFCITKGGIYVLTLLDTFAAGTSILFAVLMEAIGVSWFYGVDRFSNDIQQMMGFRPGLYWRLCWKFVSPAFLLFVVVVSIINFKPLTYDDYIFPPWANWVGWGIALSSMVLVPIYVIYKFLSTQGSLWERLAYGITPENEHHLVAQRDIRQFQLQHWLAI
T4 sequence (Q01959 whole entry): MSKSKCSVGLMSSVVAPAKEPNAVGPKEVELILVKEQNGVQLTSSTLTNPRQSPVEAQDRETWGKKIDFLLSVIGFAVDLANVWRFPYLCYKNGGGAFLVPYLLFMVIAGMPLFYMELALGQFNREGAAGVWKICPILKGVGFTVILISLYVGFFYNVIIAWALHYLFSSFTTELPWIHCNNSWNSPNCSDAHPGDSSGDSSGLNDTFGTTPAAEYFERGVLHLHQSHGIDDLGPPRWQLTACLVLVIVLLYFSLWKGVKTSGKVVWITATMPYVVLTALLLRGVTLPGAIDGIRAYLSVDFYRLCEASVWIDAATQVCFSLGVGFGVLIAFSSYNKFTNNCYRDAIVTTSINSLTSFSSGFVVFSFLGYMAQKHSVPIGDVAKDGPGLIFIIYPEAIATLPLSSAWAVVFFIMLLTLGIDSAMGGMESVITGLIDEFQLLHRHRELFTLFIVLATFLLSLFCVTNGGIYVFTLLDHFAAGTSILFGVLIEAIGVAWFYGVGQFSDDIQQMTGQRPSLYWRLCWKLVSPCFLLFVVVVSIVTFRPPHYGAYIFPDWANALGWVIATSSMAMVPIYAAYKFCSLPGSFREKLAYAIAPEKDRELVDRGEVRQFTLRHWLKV
Sequence of CYP2C9 (P11712 whole entry): as the sequence (P11712 whole entry) above
Sequence of CYP2D6 (P10635 whole entry): as the sequence (P10635 whole entry) above
Sequence of CYP3A4 (P08684 whole entry): as the sequence (P08684 whole entry) above

| SMILES | inhibition (INH) (Cytochrome P450 2C9) [%] | inhibition (INH) (Cytochrome P450 2C19) [%] | inhibition (INH) (Cytochrome P450 3A4) [%] | inhibition (INH) (Cytochrome P450 2D6) [%] | inhibition (INH) (Cytochrome P450 1A2) [%] | t1/2 [1] [min] | Imax [2] [%] | t1/2 [3] [min] | pIC50 (Mu-type opioid receptor) | further results |
| --- | --- | --- | --- | --- | --- | --- | --- | --- | --- | --- |
| COc1cc(CNCCc2ccccc2)ccc1Oc1ccc(C(N)=O)cn1 | 13.1 | 1.6 | 7.8 | 61.2 | 1 | 41.9 | 157 | > 145 | – | – |
| COc1cc(CNCCC2CCCCC2)ccc1Oc1ccc(C(N)=O)cn1 | – | – | – | – | – | – | – | – | 8.50 | – |
| Cl.NC(=O)c1ccc(Oc2ccc(CNCCc3ccccc3)cc2)nc1 | – | – | – | – | – | – | – | – | – | Cmax [4]: 182 ng/mL; half-life [5]: 20.9 min; Cmax [6]: 92.8 ng/mL; Drug uptake [7]: Not_active; half-life [8]: 91.2 min |
| C=CCN1CC[C@]23c4c5ccc(O)c4O[C@H]2[C@@H](OCCOCCOCCOCCOCCOCCOCCOC)CC[C@@]3(O)[C@H]1C5 | – | – | – | – | – | – | 103 | – | – | – |
| NC(=O)c1ccc(Oc2ccc(CNCCc3ccccc3)cc2OCc2ccccc2)nc1 | – | – | – | – | – | – | 152 | – | 8.50 | pIC50 [9]: 8.40 |
| COc1cc(CNC2Cc3ccccc3C2)ccc1Oc1ccc(C(N)=O)cn1 | – | – | – | – | – | – | 168 | – | 9.40 | pIC50 [10]: 8.00; pIC50 [9]: 9.20 |
| COc1cc(CNCCC(C)C)ccc1Oc1ccc(C(N)=O)cn1 | 9.7 | 21.7 | 3.8 | 35.2 | 0 | > 145 | 187 | > 145 | 8.70 | pIC50 [9]: 8.30 |
| C=CC[N+]1(C)CC[C@]23c4c5ccc(O)c4O[C@H]2C(=O)CC[C@@]3(O)[C@H]1C5 (stereo partly drawn) [NALOXONE METHIODIDE] | – | – | – | – | – | – | – | – | 6.20 | – |
| C[C@H]1CN(CC[C@H](O)C2CCCCC2)CC[C@@]1(C)c1cccc(O)c1 | – | – | – | – | – | – | 155 | – | – | inhibition at 10 µM (CYP2C9): 11.9%; inhibition at 10 µM (CYP2C19): 35.1%; inhibition at 10 µM (CYP3A4): 0%; inhibition at 10 µM (CYP2D6): 86.4%; inhibition at 10 µM (CYP1A2): 14.5%; half-life ([1]; liver microsomes): 1.9 min; pIC50 [9]: 8.40; half-life ([3]; liver microsomes): 6.4 min |
| C=CCN1CC[C@]23c4c5ccc(O)c4O[C@H]2C(=O)CC[C@@]3(O)[C@H]1C5 [NALOXONE] | – | – | – | – | – | – | – | – | – | half-life [5]: 20.9 min |
| NC(=O)c1ccc(Oc2ccc(CNCCc3ccccc3)cc2Cl)nc1 | 4.8 | 9.1 | 0 | 45.4 | 12.1 | 13.6 | 158 | 110.2 | 8.90 | – |
| CC(C)(NC(=O)C1=C(O)[C@@H]2Oc3c(O)ccc4c3[C@@]23CCN(CC2CC2)[C@H](C4)[C@]3(O)C1)c1nc(-c2ccccc2)no1 [NALDEMEDINE] | – | – | – | – | – | – | – | – | 8.50 | – |
| NC(=O)c1ccc(Oc2ccc(CNCCc3ccccc3)cc2)nc1 [listing 1 of 2 here] | – | – | – | – | – | – | 230 | – | – | Imax [11]: 83.9%; Emax [12]: 99.4%; Imax [13]: 71.5%; Imax [14]: 76.1%; Imax [15]: 99.9%; Imax [16]: 64.3% |
| NC(=O)c1ccc(Oc2ccc(CNCCc3ccccc3)cc2)nc1 [listing 2 of 2 here] | – | 11.6 | 6.8 | 72.7 | 0.6 | 62.9 | – | > 145 | – | pIC50 [17]: 5.43; pIC50 [18]: 5.52; pIC50 [19]: 5.26; Emax (hERG (KCNH2)): 63.7%; pIC50 [20]: 5.30; pIC50 [21]: 5.82; CLH [22]: 22.05 µL/min/mg |
| NC(=O)c1ccc(Oc2ccc(CNCCc3ccccc3)cc2)cc1 | 9.5 | 27.7 | 0 | 66.4 | 0 | 7.6 | – | > 145 | – | pIC50 [10]: 8.00 |
| C=C1CC[C@@]2(O)[C@H]3Cc4ccc(O)c5c4[C@@]2(CCN3CC2CC2)[C@H]1O5 | 0 | 0 | 0.2 | 68.2 | 0 | 87.1 | – | > 145 | – | – |
